Experimental data reported in US5885988A, “Benzo[g]quinoline derivatives” (Novartis AG, priority 1995, dated 1999).

How the values were obtained:
intruder mouse test = type: in vivo; settings: for social withdrawal in the intruder mouse test, standard anti-manic drugs: 3-30 mg/kg s.c.
From the text: (§1) For all the above indications the preferred compound is [3R,4aR,10aR]-1,2,3,4,4a,5,10, 10a-octahydro-6-methoxy-1 -methyl-benzo[g]quinoline-3-carboxylic acid 4-(4-nitro-phenyl)-piperazine amide, which is the compound of example 1.

[1] = Matched Pairs Situation test; type: in vivo, mice; settings: for potency compared with the compound of example 1: Matched Pairs Situation test and intruder mouse test, 3-30 mg/kg s.c. versus 1-10 mg/kg s.c.
From the text: Furthermore at said doses the compounds of the invention reduce aggressive behavior (attacks, chases, bites) in the Matched Pairs Situation test in mice [Dixon et al., J. Clin. Psychiatry 55: (9) [Suppl. B] 4-7 (1994)]. […] They are therefore indicated for the treatment of affective disorders including bipolar disorders e.g. manic-depressive psychoses, extreme psychotic states e.g. mania, schizophrenia, and excessive mood swings where behavioral stabilization is desired. In addition, the compounds are indicated in anxiety states, generalized anxiety as well as social and agoraphobia, as well as those behavioural states characterized by social withdrawal e.g. negative symptoms.
as §1

rat sst1 receptors = rat sst1 receptors (Rattus norvegicus, UniProt P28646); experiment: radioligand binding, rat sst1 receptors; settings: read-out: affinity for rat sst1 receptors, pIC50 (converted)
Chain of rat sst1 receptors (P28646 whole entry): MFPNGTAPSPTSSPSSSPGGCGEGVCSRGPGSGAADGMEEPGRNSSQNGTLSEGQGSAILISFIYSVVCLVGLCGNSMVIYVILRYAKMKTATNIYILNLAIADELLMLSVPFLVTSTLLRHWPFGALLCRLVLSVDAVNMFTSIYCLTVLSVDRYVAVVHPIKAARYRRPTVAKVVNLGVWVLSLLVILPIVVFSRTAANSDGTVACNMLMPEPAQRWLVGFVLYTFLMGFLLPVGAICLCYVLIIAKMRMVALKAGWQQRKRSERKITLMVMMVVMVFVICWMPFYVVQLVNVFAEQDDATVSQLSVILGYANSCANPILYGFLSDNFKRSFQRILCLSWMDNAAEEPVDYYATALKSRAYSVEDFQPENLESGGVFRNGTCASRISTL
From the text: (§2) In particular the agents of the invention bind to somatostatin receptors.
as §1

[2] = biological target: T1, recombinant human sst1 receptors (Homo sapiens, UniProt P30872); experiment: radioligand binding, recombinant human sst1 receptors; settings: read-out: affinity for recombinant human sst1 receptors, pIC50 (converted)
T1 construct: expressed in transfected cells
T1 sequence (P30872 whole entry): as the sequence (P28646 whole entry) above, with P8S, T11S, S16P, G20S, V25G, C26G, S32A, S45A, A385T, S389T counted along it
From the text: as §2, §1

[3] = tested on: neurotransmitter receptors; experiment: activity at a wide range of neurotransmitter receptors; type: binding
From the text: as §1

| Compound | social withdrawal in the intruder mouse test, standard anti-manic drugs (intruder mouse test) | potency compared with the compound of example 1 [1] | IC50 (rat sst1 receptors) | IC50 [2] | activity for a wide range of neurotransmitter receptors [3] | social withdrawal in the intruder mouse test (intruder mouse test; 1-10 mg/kg s.c.) | aggressive behavior in the Matched Pairs Situation test ([1]; 1-10 mg/kg s.c.) |
| --- | --- | --- | --- | --- | --- | --- | --- |
| NC(=O)N1c2ccccc2C=Cc2ccccc21 [carbamazepine] | These effects are also observed | less potent |  |  |  |  |  |
| COc1cccc2c1C[C@H]1C[C@@H](C(=O)N3CCN(c4ccc([N+](=O)[O-])cc4)CC3)CN(C)[C@@H]1C2 [Example 1, [3R,4aR,10aR]-1,2,3,4,4a ,5,10,10a-octahydro-6-methoxy-1-methyl-benzo[g]quinoline-3-carboxylic acid 4-(4-nitro-phenyl)-piperazine amide] |  |  | 0.794 nM | 20 nM | without significant activity | reverses social withdrawal | clearly lowers aggressive behavior |
| [Li] [lithium] | These effects are also observed | less potent |  |  |  |  |  |
